In article PMC5813235, “Selective inhibition of TRPM2 channel by two novel synthesized ADPR analogues” (Chemical Biology & Drug Design, 2017):
Where two headings read alike, the source gives them in different places.

Biological target: T1, human TRPM2 (Homo sapiens, UniProt O94759)
T1 construct: whole-cell patch clamp
Assay: whole-cell patch clamp, current inhibition
Format: cell-based

[1] = compound in intracellular (pipette) solution with 0.1 mM ADPR as activator, room temperature, pH 7.3 inside, 7.4 outside

T1 sequence (O94759 whole entry): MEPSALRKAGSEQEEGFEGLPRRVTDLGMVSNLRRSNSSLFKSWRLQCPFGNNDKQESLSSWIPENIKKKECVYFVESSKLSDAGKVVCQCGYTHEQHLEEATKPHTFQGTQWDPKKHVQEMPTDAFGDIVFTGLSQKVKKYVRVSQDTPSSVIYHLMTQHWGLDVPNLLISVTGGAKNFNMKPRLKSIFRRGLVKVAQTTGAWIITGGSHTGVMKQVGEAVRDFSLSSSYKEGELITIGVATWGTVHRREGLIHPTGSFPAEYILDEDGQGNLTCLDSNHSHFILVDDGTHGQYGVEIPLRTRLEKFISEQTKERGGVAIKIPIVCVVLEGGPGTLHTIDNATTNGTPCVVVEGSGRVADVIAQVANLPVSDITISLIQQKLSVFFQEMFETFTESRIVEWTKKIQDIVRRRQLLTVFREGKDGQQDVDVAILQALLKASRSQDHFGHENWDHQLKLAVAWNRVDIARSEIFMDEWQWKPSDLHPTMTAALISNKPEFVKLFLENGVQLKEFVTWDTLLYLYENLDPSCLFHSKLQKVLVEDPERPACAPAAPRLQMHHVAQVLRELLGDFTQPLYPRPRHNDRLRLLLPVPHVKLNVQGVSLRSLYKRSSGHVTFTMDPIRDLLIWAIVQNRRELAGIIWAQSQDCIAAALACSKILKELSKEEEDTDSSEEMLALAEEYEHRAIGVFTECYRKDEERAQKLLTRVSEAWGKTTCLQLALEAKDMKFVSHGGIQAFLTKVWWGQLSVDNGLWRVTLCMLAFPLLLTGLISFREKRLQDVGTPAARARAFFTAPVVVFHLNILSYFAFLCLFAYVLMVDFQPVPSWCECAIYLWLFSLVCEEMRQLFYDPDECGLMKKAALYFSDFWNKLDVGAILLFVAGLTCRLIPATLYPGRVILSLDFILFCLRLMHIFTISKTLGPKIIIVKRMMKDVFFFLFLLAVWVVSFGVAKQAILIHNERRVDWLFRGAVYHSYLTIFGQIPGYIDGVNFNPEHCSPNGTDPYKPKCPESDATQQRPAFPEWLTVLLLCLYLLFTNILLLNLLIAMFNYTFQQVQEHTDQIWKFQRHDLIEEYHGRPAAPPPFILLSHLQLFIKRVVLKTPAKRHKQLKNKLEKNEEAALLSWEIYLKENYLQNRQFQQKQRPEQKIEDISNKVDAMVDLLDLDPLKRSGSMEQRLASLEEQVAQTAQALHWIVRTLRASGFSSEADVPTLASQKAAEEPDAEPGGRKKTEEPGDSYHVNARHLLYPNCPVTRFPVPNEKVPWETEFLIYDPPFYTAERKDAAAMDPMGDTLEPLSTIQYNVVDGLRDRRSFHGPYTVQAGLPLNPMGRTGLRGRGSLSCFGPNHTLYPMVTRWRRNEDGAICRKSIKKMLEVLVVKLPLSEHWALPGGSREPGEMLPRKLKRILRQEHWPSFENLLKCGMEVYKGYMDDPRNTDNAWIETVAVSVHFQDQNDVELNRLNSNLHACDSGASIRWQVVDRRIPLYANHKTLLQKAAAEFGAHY

| IC50 [µM] | Compound | other results |
| --- | --- | --- |
| > 100 | COC1O[C@H](COP(=O)(O)CP(=O)(O)OC[C@H]2O[C@@H](n3cnc4c(N)ncnc43)[C@@H]3OC(C)(C)O[C@@H]32)[C@H]2OC(C)(C)O[C@@H]12 (stereo partly drawn) [7a, 1″‐O‐methyl‐2″,2′,3″,3′‐O‐isopropylidene‐5′‐methylenediphoribose adenosine] | – |
| > 100 | COC1O[C@H](COP(=O)(O)CP(=O)(O)OC[C@H]2O[C@@H](n3cnc4c(N)nc(Cl)nc43)[C@@H]3OC(C)(C)O[C@@H]32)[C@H]2OC(C)(C)O[C@@H]12 (stereo partly drawn) [7b] | – |
| > 100 | COC1O[C@H](COP(=O)(O)CP(=O)(O)OC[C@H]2O[C@@H](n3cnc4c(N)nc(Br)nc43)[C@@H]3OC(C)(C)O[C@@H]32)[C@H]2OC(C)(C)O[C@@H]12 (stereo partly drawn) [7c] | – |
| > 100 | COc1nc(N)c2ncn([C@@H]3O[C@H](COP(=O)(O)CP(=O)(O)OC[C@H]4OC(OC)[C@@H]5OC(C)(C)O[C@H]45)[C@H]4OC(C)(C)O[C@H]43)c2n1 (stereo partly drawn) [7d] | – |
| > 100 | COC1O[C@H](COP(=O)(O)CP(=O)(O)OC[C@H]2O[C@@H](n3cnc4c(N)nc(N)nc43)[C@@H]3OC(C)(C)O[C@@H]32)[C@H]2OC(C)(C)O[C@@H]12 (stereo partly drawn) [7e] | – |
| > 100 | CNc1ncnc2c1ncn2[C@@H]1O[C@H](COP(=O)(O)CP(=O)(O)OC[C@H]2OC(OC)[C@@H]3OC(C)(C)O[C@H]23)[C@H]2OC(C)(C)O[C@H]21 (stereo partly drawn) [7f] | – |
| > 100 | COC1O[C@H](COP(=O)(O)CP(=O)(O)OC[C@H]2O[C@@H](n3cnc4c(N(C)C)ncnc43)[C@@H]3OC(C)(C)O[C@@H]32)[C@H]2OC(C)(C)O[C@@H]12 (stereo partly drawn) [7g] | – |
| > 100 | COC1O[C@H](COP(=O)(O)C(F)(F)P(=O)(O)OC[C@H]2O[C@@H](n3cnc4c(N)ncnc43)[C@@H]3OC(C)(C)O[C@@H]32)[C@H]2OC(C)(C)O[C@@H]12 (stereo partly drawn) [7h] | – |
| 5.7 | COC1O[C@H](COP(=O)(O)C(F)(F)P(=O)(O)OC[C@H]2O[C@@H](n3cnc4c(N)nc(Cl)nc43)[C@@H]3OC(C)(C)O[C@@H]32)[C@H]2OC(C)(C)O[C@@H]12 (stereo partly drawn) [7i] | – |
| > 100 | COc1nc(N)c2ncn([C@@H]3O[C@H](COP(=O)(O)C(F)(F)P(=O)(O)OC[C@H]4OC(OC)[C@@H]5OC(C)(C)O[C@H]45)[C@H]4OC(C)(C)O[C@H]43)c2n1 (stereo partly drawn) [7j] | – |
| > 100 | COC1O[C@H](COP(=O)(O)C(F)(F)P(=O)(O)OC[C@H]2O[C@@H](n3cnc4c(N)nc(N)nc43)[C@@H]3OC(C)(C)O[C@@H]32)[C@H]2OC(C)(C)O[C@@H]12 (stereo partly drawn) [7k] | – |
| > 100 | COC1O[C@H](COP(=O)(O)OP(=O)(O)OC[C@H]2O[C@@H](n3cnc4c(N)ncnc43)[C@@H]3OC(C)(C)O[C@@H]32)[C@H]2OC(C)(C)O[C@@H]12 (stereo partly drawn) [7l] | – |
| > 100 | COC1O[C@H](COP(=O)(O)CP(=O)(O)OC[C@H]2O[C@@H](n3cnc4c(N)nc(I)nc43)[C@@H]3OC(C)(C)O[C@@H]32)[C@H]2OC(C)(C)O[C@@H]12 (stereo partly drawn) [7m] | – |
| > 100 | COC1O[C@H](COP(=O)(O)C(F)(F)P(=O)(O)OC[C@H]2O[C@@H](n3cnc4c(N)nc(Br)nc43)[C@@H]3OC(C)(C)O[C@@H]32)[C@H]2OC(C)(C)O[C@@H]12 (stereo partly drawn) [7n, 1″‐O‐methyl‐2″,2′,3″,3′‐O‐isopropylidene‐5′‐difluoromethylenediphosphoribose‐2‐bromoadenosine] | – |
| > 100 | COC1O[C@H](COP(=O)(O)C(F)(F)P(=O)(O)OC[C@H]2O[C@@H](n3cnc4c(N)nc(I)nc43)[C@@H]3OC(C)(C)O[C@@H]32)[C@H]2OC(C)(C)O[C@@H]12 (stereo partly drawn) [7o] | – |
| 5.4 | COC1O[C@H](COP(=O)(O)CP(=O)(O)OC[C@H]2O[C@@H](n3cnc4c(N)ncnc43)[C@H](O)[C@@H]2O)[C@H]2OC(C)(C)O[C@@H]12 (stereo partly drawn) [8a, 1″‐O‐methyl‐2″,3″‐O‐isopropylidene‐5′‐methylenediphosphoribose adenosine] | – |
| > 100 | COC1O[C@H](COP(=O)(O)C(F)(F)P(=O)(O)OC[C@H]2O[C@@H](n3cnc4c(N)nc(I)nc43)[C@H](O)[C@@H]2O)[C@H]2OC(C)(C)O[C@@H]12 (stereo partly drawn) [8e] | – |
| > 100 | COC1O[C@H](COP(=O)(O)CP(=O)(O)OC[C@H]2O[C@@H](n3cnc4c(N)ncnc43)[C@H](OC)[C@@H]2O)[C@H]2OC(C)(C)O[C@@H]12 (stereo partly drawn) [compound 13, 1″‐O‐methyl‐2″,3″‐O‐isopropylidene‐2′‐methoxy‐5′‐methylenediphoribose adenosine] | – |

Continued, compound first:

| Compound | IC50 [µM] | other results |
| --- | --- | --- |
| COC1O[C@H](COP(=O)(O)CP(=O)(O)OC[C@H]2O[C@@H](n3cnc4c(N)nc(Cl)nc43)[C@H](O)[C@@H]2O)[C@H]2OC(C)(C)O[C@@H]12 (stereo partly drawn) [8b] | > 100 | – |
| COC1O[C@H](COP(=O)(O)C(F)(F)P(=O)(O)OC[C@H]2O[C@@H](n3cnc4c(N)nc(Cl)nc43)[C@H](O)[C@@H]2O)[C@H]2OC(C)(C)O[C@@H]12 (stereo partly drawn) [8c] | > 100 | – |
| COC1O[C@H](COP(=O)(O)C(F)(F)P(=O)(O)OC[C@H]2O[C@@H](n3cnc4c(N)nc(Br)nc43)[C@H](O)[C@@H]2O)[C@H]2OC(C)(C)O[C@@H]12 (stereo partly drawn) [8d, 1″‐O‐methyl‐2″,3″‐O‐isopropylidene‐5′‐difluoromethylenediphosphoribose‐2‐bromoadenosine] | > 100 | – |
| COC1O[C@H](COP(=O)(O)C(F)(F)P(=O)(O)OC[C@H]2O[C@@H](n3cnc4c(N)nc(Br)nc43)[C@H](O)[C@@H]2O)[C@@H](O)[C@H]1O (stereo partly drawn) [9a, 1″‐O‐methyl‐difluoromethylenediphosphoribose‐2‐bromoadenosine] | > 100 | – |
| COC1O[C@H](COP(=O)(O)C(F)(F)P(=O)(O)OC[C@H]2O[C@@H](n3cnc4c(N)nc(I)nc43)[C@H](O)[C@@H]2O)[C@@H](O)[C@H]1O (stereo partly drawn) [9b] | > 100 | – |
| Nc1ncnc2c1ncn2[C@@H]1O[C@H](COP(=O)(O)CP(=O)(O)OC[C@H]2OC(O)[C@H](O)[C@@H]2O)[C@@H](O)[C@H]1O (stereo partly drawn) [10a, methylenediphosphoribose adenosine] | – | IC50 [1]: > 100 µM |
| Nc1nc(Cl)nc2c1ncn2[C@@H]1O[C@H](COP(=O)(O)CP(=O)(O)OC[C@H]2OC(O)[C@H](O)[C@@H]2O)[C@@H](O)[C@H]1O (stereo partly drawn) [10b] | > 100 | – |
| Nc1nc(Br)nc2c1ncn2[C@@H]1O[C@H](COP(=O)(O)CP(=O)(O)OC[C@H]2OC(O)[C@H](O)[C@@H]2O)[C@@H](O)[C@H]1O (stereo partly drawn) [10c] | > 100 | – |
| COc1nc(N)c2ncn([C@@H]3O[C@H](COP(=O)(O)CP(=O)(O)OC[C@H]4OC(O)[C@H](O)[C@@H]4O)[C@@H](O)[C@H]3O)c2n1 (stereo partly drawn) [10d] | > 100 | – |
| Nc1nc(N)c2ncn([C@@H]3O[C@H](COP(=O)(O)CP(=O)(O)OC[C@H]4OC(O)[C@H](O)[C@@H]4O)[C@@H](O)[C@H]3O)c2n1 (stereo partly drawn) [10e] | > 100 | – |
| CNc1ncnc2c1ncn2[C@@H]1O[C@H](COP(=O)(O)CP(=O)(O)OC[C@H]2OC(O)[C@H](O)[C@@H]2O)[C@@H](O)[C@H]1O (stereo partly drawn) [10f] | > 100 | – |
| CN(C)c1ncnc2c1ncn2[C@@H]1O[C@H](COP(=O)(O)CP(=O)(O)OC[C@H]2OC(O)[C@H](O)[C@@H]2O)[C@@H](O)[C@H]1O (stereo partly drawn) [10g] | > 100 | – |
| Nc1ncnc2c1ncn2[C@@H]1O[C@H](COP(=O)(O)C(F)(F)P(=O)(O)OC[C@H]2OC(O)[C@H](O)[C@@H]2O)[C@@H](O)[C@H]1O (stereo partly drawn) [10h] | > 100 | – |
| Nc1nc(Cl)nc2c1ncn2[C@@H]1O[C@H](COP(=O)(O)C(F)(F)P(=O)(O)OC[C@H]2OC(O)[C@H](O)[C@@H]2O)[C@@H](O)[C@H]1O (stereo partly drawn) [10i] | > 100 | – |
| COc1nc(N)c2ncn([C@@H]3O[C@H](COP(=O)(O)C(F)(F)P(=O)(O)OC[C@H]4OC(O)[C@H](O)[C@@H]4O)[C@@H](O)[C@H]3O)c2n1 (stereo partly drawn) [10j] | > 100 | – |
| Nc1nc(N)c2ncn([C@@H]3O[C@H](COP(=O)(O)C(F)(F)P(=O)(O)OC[C@H]4OC(O)[C@H](O)[C@@H]4O)[C@@H](O)[C@H]3O)c2n1 (stereo partly drawn) [10k] | > 100 | – |
| Nc1ncnc2c1ncn2[C@@H]1O[C@H](COP(=O)(O)OP(=O)(O)OC[C@H]2OC(O)[C@H](O)[C@@H]2O)[C@@H](O)[C@H]1O (stereo partly drawn) [10l] | – | IC50 (compound in intracellular solution with 0.1 mM ADPR, drawn structure is ADPR itself, the channel activator): > 100 µM |
| Nc1nc(I)nc2c1ncn2[C@@H]1O[C@H](COP(=O)(O)CP(=O)(O)OC[C@H]2OC(O)[C@H](O)[C@@H]2O)[C@@H](O)[C@H]1O (stereo partly drawn) [10m] | > 100 | – |
| Nc1nc(Br)nc2c1ncn2[C@@H]1O[C@H](COP(=O)(O)C(F)(F)P(=O)(O)OC[C@H]2OC(O)[C@H](O)[C@@H]2O)[C@@H](O)[C@H]1O (stereo partly drawn) [10n, difluoromethylenediphosphoribose‐2‐bromoadenosine] | – | IC50 [1]: > 100 µM |
| Nc1nc(I)nc2c1ncn2[C@@H]1O[C@H](COP(=O)(O)C(F)(F)P(=O)(O)OC[C@H]2OC(O)[C@H](O)[C@@H]2O)[C@@H](O)[C@H]1O (stereo partly drawn) [10o] | > 100 | – |
| CO[C@@H]1[C@H](O)[C@@H](COP(=O)(O)CP(=O)(O)OC[C@H]2OC(O)[C@H](O)[C@@H]2O)O[C@H]1n1cnc2c(N)ncnc21 (stereo partly drawn) [compound 14, 2′‐methoxy‐5′‐methylenediphoribose adenosine] | > 100 | – |
